Data published in patent publication EP0609289B1, “IMIDAZOLE DERIVATIVES AND PHARMACEUTICAL COMPOSITIONS CONTAINING THE SAME” (THE UPJOHN COMPANY, priority 1991, dated 1993).

What was measured:
Angiotensin II receptor = test: In vitro angiotensin II mesenteric artery receptor binding assay (test 1); conditions: rat mesenteric artery membrane fraction, 0.2 nM 125I-Ang II, 22°C, 90 minutes
Experimental: I) In vitro angiotensin II mesenteric artery receptor binding assay
According to the method (1) by Gunther et al., a membrane fraction was prepared from mesenteric artery of male rat, […] protein equivalent of it and 0.2 nM ^125I-Ang II as well as various concentrations of test compounds were incubated at 22°C for 90 minutes in an incubation buffer (50 mM Tris-HCl, 120 mM NaCl, 5 mM MgCl2. 0.25% bovine serum albumin, pH 7.2) (reaction volume; 200 µl). The incubated was cooled, and the reaction was stopped by addition of ice-cooled phosphate buffer (10 mM phosphate, 140 mM NaCI, pH 7.4, hereinafter referred to as PBS), and then the reaction solution was filtered through a glass fiber filter (Whatman CF/B), the filter was washed, dried, and then the radioactivity of captured ^125I-angiotensin II which bound to the receptor was measured by a γ-counter. Non-specific bound amount was obtained from the reaction in the presence of 1 µM of unlabeled angiotensin II. […] Res., 17:278-286, 1980].

[1] = tested on: angiotensin II constriction in an isolated rabbit thoracic aorta; test: Antagonism to angiotensin II constriction in an isolated rabbit thoracic aorta (test 3); conditions: test compound 10^-6 M for 20 minutes
Experimental: 3) Antagonism to angiotensin II constriction in an isolated rabbit thoracic aorta
A rectangular strip-like sample of thoracic aorta isolated from an anaesthetized rabbit was prepared, and the sample was suspended at 2.0 g of loaded tension in a Magnus tube filled with Krebs-Henseleitoid nutrition solution which was well aerated with 95% O2-5% CO2, and the constriction tension was measured using an isometric transducer. After the tension of the sample at rest became stable, accumulative administration of angiotensin II was carried out to obtain a concentration-action curve. Thereafter, the sample was washed with the same nutrition solution, then treated with test compound (10^-6 M) for 20 minutes to obtain again a concentration-action curve of angiotensin II. The results were obtained as followed: generated maximum tension at the first accumulative administration of angiotensin II was regarded as 100 %, and the 50 % effective concentration (ED50) was obtained in the presence or absence of the test compound, and pA2 value was calculated according to the following equations: • pA2=-logKB KB=C/{(A'/A)-1} • C; concentration of the test compound (M) • A'; ED50 in the presence of test compound (M) • A; ED50 in the absence of the test compound (M)

[2] = tested on: blood pressure increase by angiotensin II; test: Antagonism to blood pressure increase by angiotensin II in a spine destroyed (pithed) rat (test 4); assay type: in vivo, Wistar rat; conditions: intravenous administration, 3µg/kg angiotensin II, read-out: Inhibition of blood pressure increase by angiotensin II in pithed rat ED50(mg/kg) (test 4)
Text: 4) Antagonism to blood pressure increasing by angiotensin II in a spine destroyed rat
Wistar rat anaesthetized with pentobarbital was fixed at dorsal position, and a cannula for measuring blood pressure was inserted into sinister arteria carotis communis, and a cannula for administration of the test compound into dexter external jugular vein and a cannula for administration of angiotensin II into sinister external jugular vein, ambilateral nervus vagus was cut, and artificial respiration was carried out. A thin bar made of metal was stabbed into spinal column through sinister orbita to destroy spine. Blood pressure was recorded on polygraph via pressure transducer from an arterial cannula. After blood pressure was stable for more than 30 min., 3µg/kg of angiotensin II was administered intravenously four times every 15 min, and every 5 min. before the administration of angiotensin II from the second administration onward, a solvent, a lower dose of the test compound, and a higher dose of the test compound were administered intravenously in this order to observe the blood pressure increasing response by angiotensin II. ED50 values were calculated from the inhibiting rate when the first blood pressure increase by angiotensin II was regarded as 100 %.

IC50 (Angiotensin II receptor) [nM] | SMILES | Inhibition of rabbit aorta constriction pA2 (test 3) [1] | ED50 [2] [mg/kg]
1.9 | CCCc1nc2c(=O)n3n(c(=O)c2n1Cc1ccc(-c2ccccc2-c2nn[nH]n2)cc1)C(C)CCC3C(=O)N(CC)CC (stereo not drawn) [Compound No. 203, 4,9-dioxo-8-methyl-2-n-propyl-5,6,7,8-tetrahydro-1-[{2'-(1H-tetrazol-5-yl)biphenyl-4-yl}methyl]-1H-1,3,4a,8a-tetraza-cyclopentanaphthalene-5-carboxy-N,N-diethylamide] | 10.0 | –
32 | CCCc1nc2c(n1Cc1ccc(-c3ccccc3-c3nn[nH]n3)cc1)C(=O)N1CCCCN1C2 [Compound No. 366, 2-n-propyl-5,6,7,8-tetrahydro-1-[{2'-(1H-tetrazol-5-yl)biphenyl-4-yl}methyl]-1H,4H-1,3,4a,8a-tetraza-cyclopentanaphthalene-9-one] | 9.32 | –
1.3 | CCCCc1nc2c(=O)n3n(c(=O)c2n1Cc1ccc(-c2ccccc2-c2nn[nH]n2)cc1)C(C)CCC3C(=O)OCC (stereo not drawn) [compound 169, ethyl 2-n-butyl-4,9-dioxo-8-methyl-5,6,7,8-tetrahydro-1-[{2'-(1H-tetrazol-5-yl)biphenyl-4-yl}methyl]-1H-1,3,4a,8a-tetraza-cyclopentanaphthalene-5-carboxylate] | 10.19 | –
8.1 | CCCCc1nc2c(=O)n3n(c(=O)c2n1Cc1ccc(-c2ccccc2-c2nn[nH]n2)cc1)CC(C)=C(C)C3 [compound 68, 2-n-butyl-5,8-dihydro-6,7-dimethyl-1-[(2'-(1H-tetrazol-5-yl)biphenyl-4-yl)methyl]-1H-1,3,4a,8a-tetraza-cyclopentanaphthalene-4,9-dione] | – | 0.56
3.9 | CCCc1nc2c(n1Cc1ccc(-c3ccccc3-c3nn[nH]n3)cc1)C(=O)N1C(C)CCC(C)N1C2 (stereo not drawn) [Compound No. 430, 5,8-dimethyl-2-n-propyl-5,6,7,8-tetrahydro-1-[{2'-(1H-tetrazol-5-yl)biphenyl-4-yl}methyl]-1H,4H-1,3,4a,8a-tetraza-cyclopentanaphthalene-9-one] | 10.04 | –
32 | CCCCc1nc2c(=O)n3n(c(=O)c2n1Cc1ccc(-c2ccccc2-c2nn[nH]n2)cc1)C1CCC3(C(=O)NC(C)(C)C)CC1 [Compound No. 236, 2-n-butyl-4,9-dioxo-5,8-ethano-5,6,7,8-tetrahydro-1-[{2'-(1H-tetrazol-5-yl)biphenyl-4-yl}methyl]-1H-1,3,4a,8a-tetraza-cyclopentanaphthalene-5-carboxy-N-t-butylamide] | – | 0.11
8.2 | CCCCc1nc2c(=O)n3n(c(=O)c2n1Cc1ccc(-c2ccccc2-c2nnn[nH]2)cc1)C(C)CCC3C(=O)NC(C)(C)C (stereo not drawn) [Compound No. 208, 2-n-butyl-4,9-dioxo-8-methyl-5,6,7,8-tetrahydro-1-[{2'-(1H-tetrazol-5-yl)biphenyl-4-yl}methyl]-1H-1,3,4a,8a-tetraza-cyclopentanaphthalene-5-carboxy-N-t-butylamide] | – | 0.12
9.8 | CCCc1nc2c(=O)n3n(c(=O)c2n1Cc1ccc(-c2ccccc2-c2nnn[nH]2)cc1)C1CCC3(C(=O)N(CC)CC)CC1 [Compound No. 231, 4,9-dioxo-5,8-ethano-2-n-propyl-5,6,7,8-tetrahydro-1-[{2'-(1H-tetrazol-5-yl)biphenyl-4-yl}methyl]-1H-1,3,4a,8a-tetraza-cyclopentanaphthalene-5-carboxy-N,N-diethylamide] | – | 0.074
5.3 | CCCc1nc2c(=O)n3n(c(=O)c2n1Cc1ccc(-c2ccccc2-c2nn[nH]n2)cc1)CC(C)C(C)C3 (stereo not drawn) [Compound No. 50, 6,7-dimethyl-2-n-propyl-5,6,7,8-tetrahydro-1-[(2'-(1H-tetrazol-5-yl)biphenyl-4-yl)methyl]-1H-1,3,4a,8a-tetraza-cyclopentanaphthalene-4,9-dione] | – | 0.2
4.6 | CCCCc1nc2c(=O)n3n(c(=O)c2n1Cc1ccc(-c2ccccc2-c2nn[nH]n2)cc1)C1CCC3(C(=O)OCC)CC1 [Compound No. 196, ethyl 2-n-butyl-4,9-dioxo-5,8-ethano-5,6,7,8-tetrahydro-1-[{2'-(1H-tetrazol-5-yl)biphenyl-4-yl}methyl]-1H-1,3,4a,8a-tetraza-cyclopentanaphthalene-5-carboxylate] | – | 0.23
55 | CCc1nc2c(=O)n3n(c(=O)c2n1Cc1ccc(-c2ccccc2-c2nn[nH]n2)cc1)C1(C)CCC3(C)CC1 [compound 361, 5,8-dimethyl-5,8-ethano-2-ethyl-5,6,7,8-tetrahydro-1-[{2'-(1H-tetrazol-5-yl)biphenyl-4-yl}methyl]-1H-1,3,4a,8a-tetraza-cyclopentanaphthalene-4,9-dione] | – | –
5.1 | CCCCc1nc2c(=O)n3n(c(=O)c2n1Cc1ccc(-c2ccccc2-c2nn[nH]n2)cc1)C1CCC3(C(=O)OC)CC1 [Compound No. 159, methyl 2-n-butyl-5,8-ethano-4,9-dioxo-5,6,7,8-tetrahydro-1-[{2'-(1H-tetrazol-5-yl)biphenyl4-yl}methyl]-1H-1,3,4a,8a-tetraza-cyclopentanaphthalene-5-carboxylate] | – | –
> 100 | CCCc1nc2c(n1Cc1ccc(-c3ccccc3-c3nnn[nH]3)cc1)CN1C3CCC(CC3)N1C2 [Compound No. 523, 5,8-ethano-4,5,6,7,8,9-hexahydro-2-n-propyl-1-[{2'-(1H-tetrazol-5-yl)biphenyl-4-yl}methyl]-1H-1,3,4a,8a-tetraza-cyclopentanaphthalene] | – | –
3 | CCCCc1nc2c(=O)n3n(c(=O)c2n1Cc1ccc(-c2ccccc2-c2nnn[nH]2)cc1)C1(CO)CCC3CC1 [Compound No. 222, 2-n-butyl-5,8-ethano-8-hydroxymethyl-5,6,7,8-tetrahydro-1-[{2'-(1H-tetrazol-5-yl)biphenyl-4-yl}methyl]-1H-1,3,4a,8a-tetraza-cyclopentanaphthalene-4,9-dione] | – | 0.56
4 | CCCc1nc2c(=O)n3n(c(=O)c2n1Cc1ccc(-c2ccccc2-c2nn[nH]n2)cc1)C(C(=O)OCC)CCC3C (stereo not drawn) [Compound No. 138, ethyl 4,9-dioxo-5-methyl-2-n-propyl-5,6,7,8-tetrahydro-1-[(2'-(1H-tetrazol-5-yl)biphenyl-4-yl)methyl]-1H-1,3,4a,8a-tetraza-cyclopentanaphthalene-8-carboxylate] | – | 0.096
25 | CCCc1nc2c(=O)n3n(c(=O)c2n1Cc1ccc(-c2ccccc2-c2nn[nH]n2)cc1)C1(C(=O)N(CCO)CCO)CCC3CC1 [Compound No. 241, 4,9-dioxo-5,8-ethano-2-n-propyl-5,6,7,8-tetrahydro-1-[{2'-(1H-tetrazol-5-yl)biphenyl-4-yl}methyl]-1H-1,3,4a,8a-tetraza-cyclopentanaphthalene-8-carboxy-N,N-bis(2-hydroxyethyl)amide] | – | –
> 100 | CCCc1nc2c(=O)n3n(c(=O)c2n1Cc1ccc(-c2ccccc2-c2nn[nH]n2)cc1)C1(C(=O)N(CC)CC)CCC3CC1 [Compound No. 233, 4,9-dioxo-5,8-ethano-2-n-propyl-5,6,7,8-tetrahydro-1-[{2'-(1H-tetrazol-5-yl)biphenyl-4-yl}methyl]-1H-1,3,4a,8a-tetraza-cyclopentanaphthalene-8-carboxy-N,N-diethylamide] | – | –

SMILES | IC50 (Angiotensin II receptor) [nM] | Inhibition of rabbit aorta constriction pA2 (test 3) [1] | ED50 [2] [mg/kg]
CCCc1nc2c(=O)n3n(c(=O)c2n1Cc1ccc(-c2ccccc2-c2nnn[nH]2)cc1)C1(COCC(=O)OC(C)(C)C)CCC3CC1 [Compound No. 225, 8-t-butoxycarboxylmethoxymethyl-5,8-ethano-2-n-propyl-5,6,7,8-tetrahydro-1-[{2'-(1H-tetrazol-5-yl)biphenyl-4-yl}methyl]-1H-1,3,4a,8a-tetraza-cyclopentanaphthalene-4,9-dione] | 66 | – | –
